Data: patent US10047080B2, “(R)-2-methyl-piperazine derivatives as CXCR3 receptor modulators” (Idorsia Pharmaceuticals Ltd., priority 2015, dated 2018)

Tests used:
Format in all cases: cell-based
human CXCR3A = human CXCR3A (Homo sapiens (Human), UniProt P49682); experiment: FLIPR assay (calcium flux, CXCL10-induced); conditions: CHO-K1 cells expressing human CXCR3A coupled to Galpha(16); CXCL10 agonist at 20 nM
Procedure: The bioactivity of compounds is tested in a fluorometric imaging plate reader (FLIPR: Molecular Devices) using engineered CHO-K1 cells expressing the human CXCR3A (GenBank: AY242128) coupled to a G protein (Galpha(16)). Cells are plated the day prior to bioassay in F12 medium supplemented with 10% FBS and G418 and hygromycin antibiotics to maintain recombinant selection. At the day of bioassay, cells are washed and dye loaded for one hour with Fluo-4-AM (Invitrogen) in Hanks Balanced Salt Solution (Invitrogen), buffered with 20 mM Hepes at pH 7.4 and sodium bicarbonate (0.038%), containing 5 mM probenecid. This buffer, but lacking the dye and containing probenecid at a concentration of 2.5 mM, is also used for washing steps (wash buffer); or lacking both dye and probenecid but supplemented with 0.1% BSA for compound dilution steps (dilution buffer). Cells are washed free of excess dye and 60 microliter of wash buffer is added. Stock solutions of test compounds are made up at a concentration of 10 mM in DMSO, and serially diluted in dilution buffer to concentrations required for inhibition dose response curves. After a 10 minute incubation period at 37° C., 10 microliters of each compound dilution are transferred from a compound plate to the plate containing the recombinant cells in the FLIPR instrument according to the manufacturer's instructions. Following basal readings, 10 microliter CXCL10 agonist at a concentration of 20 nM (from Peprotech) is added, again using the FLIPR instrument. Changes in fluorescence are monitored before and after addition of the test compounds. Emission peak values above base level after CXCL10 addition are exported after base line subtraction.
(§1) The calculated IC50 values may fluctuate depending on the daily assay performance. Fluctuations of this kind are known to those skilled in the art. In the case where IC50 values have been determined several times for the same compound, mean values are given. Data for the FLIPR assay are shown in Table 1 and for the receptor internalization assay (RIA) in Table 2.

CXCR3 = CXCR3 (Homo sapiens (Human), UniProt P49682); experiment: Receptor internalization assay (RIA) in human whole blood; conditions: final CXCL10 9 nM, CXCR3 surface expression on CD4 positive cells
Procedure: Stock solutions of test compounds are made up at a concentration of 10 mM in DMSO, and serially diluted in PBS containing 0.5% BSA to concentrations required for inhibition dose response curves. Diluted compounds are then mixed with an equal volume of CXCL10 (Peprotech) diluted in PBS. Anticoagulated venous human whole blood is added to the mixture, which is then incubated in a CO2 incubator at 37° C. to allow for ligand mediated receptor internalization (final CXCL10 concentration is 9 nM). After 30 min, the blood is mixed with fluorescently labeled CXCR3 and CD4 specific antibodies (Becton Dickinson) and incubated on ice for 10 minutes. Samples are then mixed with BD FACS Lysing Solution (Becton Dickinson) in order to eliminate red blood cells. After washing the cells with PBS containing 0.5% BSA, the samples are then analyzed in a flow cytometer (FACS Canto II, Becton Dickinson). For data analysis using FACSDiva software (Becton Dickinson), the mean fluorescence corresponding to CXCR3 cell surface expression was determined on CD4 positive cells.
as §1

hERG K channel = hERG K channel (Homo sapiens (Human), UniProt Q12809); experiment: hERG Q-Patch assay; conditions: CHO cells expressing hERG, K+ tail current
Procedure: Compounds are evaluated for block of the hERG K channel using CHO cells stably expressing the hERG gene (accession number U04270, bSys, Witterswil, Switzerland) and the QPatch robotic platform (Sophion, Ballerup, Denmark) in single-cell mode at room temperature. Cells are grown in culture flasks at 37° C. in 5% CO2, in culture medium (Ham's F-12 Nutrient Mixture, Invitrogen 21765-029) supplemented with 9% (v/v) fetal calf serum, 0.9% Penicillin/Streptomycin (10,000 U/mL, Invitrogen 15140148), 100 μg/mL Hygromycin B (Invitrogen 10687010). When the cells are ˜80% confluent (every 2-3 days), they are either split for further culture or used for electrophysiology. For further culture, cells are detached with 0.25% Trypsin EDTA solution (Invitrogen 25200-056) and a fraction of the cells (10-30%) is reseeded in culture medium. For electrophysiology, on the experimental day, cells are detached with 0.25% Trypsin EDTA solution and all cells are suspended in suspension medium (293 SFM II, Invitrogen 11686-029) supplemented with 20 mM HEPES and 0.04 mg/mL Trypsin inhibitor. Cells are kept in suspension medium at 32-35° C. in the QPatch robot until use, at which time aliquots are transferred to the extracellular solution (in mM: NaCl 150; KCl 4; CaCl2 1.2; MgCl2 1; HEPES 10; pH 7.4 with NaOH) containing 0.3% v/v DMSO and applied to the test plates. K+ currents are measured with the patch-voltage-clamp technique in the whole-cell configuration with the internal solution (in mM: KCl, 140; NaCl, 10; MgCl2, 1; HEPES, 10; EGTA, 5; pH=7.2 with KOH). Currents are low-pass filtered using the internal Bessel filter of the QPatch robot with a cut-off frequency of 2 kHz and are digitized at 10 kHz. K^+ tail currents are produced from a holding voltage of −80 mV by a 500-ms depolarization to +20 mV followed by a 500-ms repolarization to −40 mV; tail current amplitudes are measured at the end of the repolarization to −40 mV. The pulse pattern is repeated every 10 sec during the experiment, baseline K^+ current is measured after 3 min in extracellular solution, test-solution containing compound is then applied, and K^+ current in presence of compound is measured 3 minutes after application to the cells. The respective test-solution is prepared by (1) dissolving the test-compound in pure DMSO, (2) diluting this DMSO solution in extracellular solution, and (3) adding further DMSO, such that the final test-solution has a concentration of either 300 nM or 3000 nM of the test-compound and contains 0.3% v/v DMSO. Compound effects are quantified as % block by dividing the current in presence of compound by the baseline current; two or three experiments are performed for each compound and the final value represents the mean of the results of each experiment.

human CXCR3A, sequence (P49682 whole entry): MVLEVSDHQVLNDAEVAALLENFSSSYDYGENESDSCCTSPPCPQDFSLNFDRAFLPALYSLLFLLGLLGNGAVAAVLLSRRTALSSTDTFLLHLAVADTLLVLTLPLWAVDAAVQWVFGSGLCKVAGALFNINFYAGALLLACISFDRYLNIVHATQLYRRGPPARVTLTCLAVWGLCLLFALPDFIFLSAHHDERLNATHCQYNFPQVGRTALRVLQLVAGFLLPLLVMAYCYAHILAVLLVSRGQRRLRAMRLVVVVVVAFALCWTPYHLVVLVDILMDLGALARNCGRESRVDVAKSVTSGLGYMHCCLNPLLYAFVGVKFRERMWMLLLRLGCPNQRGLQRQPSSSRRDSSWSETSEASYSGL
CXCR3, sequence (P49682 whole entry): as above
hERG K channel, sequence (Q12809 whole entry): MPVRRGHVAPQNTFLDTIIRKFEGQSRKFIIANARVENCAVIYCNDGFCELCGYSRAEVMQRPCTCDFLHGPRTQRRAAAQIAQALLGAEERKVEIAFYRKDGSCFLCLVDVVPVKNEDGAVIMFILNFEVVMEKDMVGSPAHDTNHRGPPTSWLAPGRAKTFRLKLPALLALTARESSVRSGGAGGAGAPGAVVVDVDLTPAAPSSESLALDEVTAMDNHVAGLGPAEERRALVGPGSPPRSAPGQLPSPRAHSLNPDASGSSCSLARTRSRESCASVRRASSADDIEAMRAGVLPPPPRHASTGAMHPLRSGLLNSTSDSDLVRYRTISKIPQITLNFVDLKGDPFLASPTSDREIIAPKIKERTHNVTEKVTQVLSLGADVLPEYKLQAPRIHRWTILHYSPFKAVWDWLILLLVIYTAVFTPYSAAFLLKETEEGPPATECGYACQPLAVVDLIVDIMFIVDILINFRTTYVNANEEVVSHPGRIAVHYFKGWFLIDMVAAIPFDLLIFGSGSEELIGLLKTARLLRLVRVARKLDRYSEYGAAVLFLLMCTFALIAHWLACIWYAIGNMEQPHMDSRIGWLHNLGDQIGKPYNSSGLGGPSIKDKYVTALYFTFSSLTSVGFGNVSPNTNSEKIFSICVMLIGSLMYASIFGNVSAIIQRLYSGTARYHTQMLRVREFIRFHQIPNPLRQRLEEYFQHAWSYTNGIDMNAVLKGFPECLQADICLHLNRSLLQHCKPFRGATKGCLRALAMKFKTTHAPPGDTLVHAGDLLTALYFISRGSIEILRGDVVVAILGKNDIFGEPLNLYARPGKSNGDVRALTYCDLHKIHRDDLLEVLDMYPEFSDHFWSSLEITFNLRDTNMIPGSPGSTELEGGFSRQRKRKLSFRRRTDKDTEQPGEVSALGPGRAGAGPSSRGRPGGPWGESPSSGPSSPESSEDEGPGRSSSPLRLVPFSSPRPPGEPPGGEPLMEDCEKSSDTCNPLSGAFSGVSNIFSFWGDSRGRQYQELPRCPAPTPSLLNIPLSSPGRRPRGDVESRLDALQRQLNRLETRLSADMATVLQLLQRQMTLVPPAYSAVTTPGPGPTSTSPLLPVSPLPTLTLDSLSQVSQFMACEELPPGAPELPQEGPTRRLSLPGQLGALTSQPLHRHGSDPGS

| SMILES | IC50 (human CXCR3A) [nM] | IC50 (CXCR3) [nM] | % block (hERG K channel; concentration 300 nM) [%] | % block (hERG K channel; concentration 3000 nM) [%] |
| --- | --- | --- | --- | --- |
| COCc1ncn(CC(=O)N2CCN(c3sc(C(F)(F)F)nc3-c3cnc(C(F)(F)F)nc3)C[C@H]2C)n1 [Example 9, 2-(3-Methoxymethyl-[1,2,4]triazol-1-yl)-1-{(R)-2-methyl-4-[2-trifluoromethyl-4-(2-trifluoromethyl-pyrimidin-5-yl)-thiazol-5-yl]-piperazin-1-yl}-ethanone] | 2.7 | 606 | 2 | 11 |
| CCc1ncn(CC(=O)N2CCN(c3sc(C(F)(F)F)nc3-c3cnc(C4CC4)nc3)C[C@H]2C)n1 [Example 15, 1-{(R)-4-[4-(2-Cyclopropyl-pyrimidin-5-yl)-2-trifluoromethyl-thiazol-5-yl]-2-methyl-piperazin-1-yl}-2-(3-ethyl-[1,2,4]triazol-1-yl)-ethanone] | 2.5 | 190 | 3 | 27 |
| C[C@@H]1CN(c2sc(C(F)(F)F)nc2-c2cnc(C(F)(F)F)nc2)CCN1C(=O)Cn1cnc(C(C)(C)C)n1 [Example 8, 2-(3-tert-Butyl-[1,2,4]triazol-1-yl)-1-{(R)-2-methyl-4-[2-trifluoromethyl-4-(2-trifluoromethyl-pyrimidin-5-yl)-thiazol-5-yl]-piperazin-1-yl}-ethanone] | 1.6 | 349 | 4 | 23 |
| CCOc1ncc(-c2nc(C(F)(F)F)sc2N2CCN(C(=O)Cn3cnc(C(C)C)n3)[C@H](C)C2)cn1 [Example 1, 1-{(R)-4-[4-(2-Ethoxy-pyrimidin-5-yl)-2-trifluoromethyl-thiazol-5-yl]-2-methyl-piperazin-1-yl}-2-(3-isopropyl-[1,2,4]triazol-1-yl)-ethanone] | 2.3 | 299 | 6 | 20 |
| Cc1ncn(CC(=O)N2CCN(c3sc(C(F)(F)F)nc3-c3cnc(C4CC4)nc3)C[C@H]2C)n1 [Example 21, 1-{(R)-4-[4-(2-Cyclopropyl-pyrimidin-5-yl)-2-trifluoromethyl-thiazol-5-yl]-2-methyl-piperazin-1-yl}-2-(3-methyl-[1,2,4]triazol-1-yl)-ethanone] | 5.2 | 462 | 3 | 17 |
| C[C@@H]1CN(c2sc(C(F)(F)F)nc2-c2cnc(C(F)(F)F)nc2)CCN1C(=O)Cn1cnc(CO)n1 [Example 10, 2-(3-Hydroxymethyl-[1,2,4]triazol-1-yl)-1-{(R)-2-methyl-4-[2-trifluoromethyl-4-(2-trifluoromethyl-pyrimidin-5-yl)-thiazol-5-yl]-piperazin-1-yl}-ethanone] | 5.2 | 809 | 6 | 17 |
| CCOc1ncc(-c2nc(C(F)(F)F)sc2N2CCN(C(=O)Cn3cnc(C(C)(C)C)n3)[C@H](C)C2)cn1 [Example 3, 2-(3-tert-Butyl-[1,2,4]triazol-1-yl)-1-{(R)-4-[4-(2-ethoxy-pyrimidin-5-yl)-2-trifluoromethyl-thiazol-5-yl]-2-methyl-piperazin-1-yl}-ethanone] | 1 | 552 | 10 | 20 |
| CCOc1ncc(-c2nc(C(F)(F)F)sc2N2CCN(C(=O)Cn3cnc(CC)n3)[C@H](C)C2)cn1 [Example 2, 1-{(R)-4-[4-(2-Ethoxy-pyrimidin-5-yl)-2-trifluoromethyl-thiazol-5-yl]-2-methyl-piperazin-1-yl}-2-(3-ethyl-[1,2,4]triazol-1-yl)-ethanone] | 1.6 | 235 | −2 | 4 |
| C[C@@H]1CN(c2sc(C(F)(F)F)nc2-c2cnc(C(F)(F)F)nc2)CCN1C(=O)Cn1cnc(C(N)=O)n1 [Example 5, 1-(2-{(R)-2-Methyl-4-[2-trifluoromethyl-4-(2-trifluoromethyl-pyrimidin-5-yl)-thiazol-5-yl]-piperazin-1-yl}-2-oxo-ethyl)-1H-[1,2,4]triazole-3-carboxylic acid amide] | 12 | 1710 | 1 | 5 |
| C[C@@H]1CN(c2sc(C(F)(F)F)nc2-c2cnc(C3CC3)nc2)CCN1C(=O)Cn1cnc(C(C)(C)C)n1 [Example 17, 2-(3-tert-Butyl-[1,2,4]triazol-1-yl)-1-{(R)-4-[4-(2-cyclopropyl-pyrimidin-5-yl)-2-trifluoromethyl-thiazol-5-yl]-2-methyl-piperazin-1-yl}-ethanone] | 4.6 | 679 | 0 | 23 |
| Cc1ncn(CC(=O)N2CCN(c3sc(C(F)(F)F)nc3-c3cnc(C(F)(F)F)nc3)C[C@H]2C)n1 [Example 20, 2-(3-Methyl-[1,2,4]triazol-1-yl)-1-{(R)-2-methyl-4-[2-trifluoromethyl-4-(2-trifluoromethyl-pyrimidin-5-yl)-thiazol-5-yl]-piperazin-1-yl}-ethanone] | 1.6 | 189 | 2 | 18 |
| C[C@@H]1CN(c2sc(C(F)(F)F)nc2-c2cnc(C(F)(F)F)nc2)CCN1C(=O)Cn1cnc(C(C)(C)O)n1 [Example 13, 2-[3-(1-Hydroxy-1-methyl-ethyl)-[1,2,4]triazol-1-yl]-1-{(R)-2-methyl-4-[2-trifluoromethyl-4-(2-trifluoromethyl-pyrimidin-5-yl)-thiazol-5-yl]-piperazin-1-yl}-ethanone] | 3.2 | 830 | 10 | 21 |
| CCCc1ncn(CC(=O)N2CCN(c3sc(C(F)(F)F)nc3-c3cnc(C(F)(F)F)nc3)C[C@H]2C)n1 [Example 11, 1-{(R)-2-Methyl-4-[2-trifluoromethyl-4-(2-trifluoromethyl-pyrimidin-5-yl)-thiazol-5-yl]-piperazin-1-yl}-2-(3-propyl-[1,2,4]triazol-1-yl)-ethanone] | 4.4 | 221 | 5 | 30 |
